According to patent US12630633B2, “Antibody molecules to PD-1 and uses thereof” (Novartis AG, priority 2015, dated 2026):
Like-named read-outs stand apart in the source and are kept apart here.

Experiments:
[1] = system: KRAS-mutant CT26 colorectal tumor; conditions: monotherapy, CT26 model; cited from earlier work
CT26 = conditions: cited from earlier work
metastatic breast cancer = conditions: phase III, cited from earlier work
AML = conditions: cited from earlier work
[2] = system: PD-1-positive CD4+ and CD8+ lymphocytes; conditions: 5 mg per week, elderly subjects; cited from earlier work
[3] = system: S6 kinase (S6K) phosphorylation; conditions: predicted by modeling, cited from earlier work
MC38 [4] = assay: MC38 murine syngeneic tumor model, Compound A21 with anti-PD-1; assay type: in vivo, C57B1/6 mice; conditions: Compound A21 100 mg/kg orally once weekly (split 50 mg/kg b.i.d.), anti-PD-1 10 mg/kg IV once weekly
Method: C57B1/6 mice were implanted with 1×10^6 MC38 cells/mouse. Vehicle and Compound A21 (50 mg/kg orally twice daily QW) were given for four doses, starting on day 4 post-tumor implant. Isotype and anti-mouse PD-1 were given 10 mg/kg IV QW.

T lymphocytes [5] = assay: Compound A21 effects on T lymphocytes in vitro; assay type: cell-based
T lymphocytes [6] = assay: T lymphocyte proliferation and cytokine production in vitro; assay type: cell-based
xenografted tumors = conditions: cited from earlier work
EGFR mutant NSCLC = assay: Compound A40 in EGFR mutant NSCLC patients; assay type: in vivo, human
[7] = system: class I, IIa, IIIb, and IV isoforms (HDAC); conditions: majority of class I; cited from earlier work
MC38 [8] = assay: MC38 murine syngeneic tumor model, panobinostat with anti-PD-1; assay type: in vivo
PD-L1 gene = conditions: cited from earlier work
[9] = system: PD-1-positive CD4+ and CD8+ lymphocytes; conditions: 5 mg per week, cited from earlier work
[10] = system: S6 kinase (S6K) phosphorylation; conditions: predicted, cited from earlier work
metastatic TNBC = conditions: Keynote-012; cited from earlier work
MNFS-60 = assay: anti-proliferative effect on M-CSF dependent cell line MNFS-60
BAF3-PDGFRβ = assay: kinase transfected BaF3 proliferation assay, BAF3-PDGFRβ; conditions: Mus musculus, BaF3, read-out: Cellular EC50 BAF3-PDGFRβ
[11] = continuous daily dosing, transaminases, rats; assay type: in vivo
glioblastoma = conditions: cited from earlier work
[12] = system: human T cell proliferation; conditions: cited from earlier work
[13] = continuous daily dosing, transaminases, monkeys; assay type: in vivo
MC38 [14] = assay: MC38 syngeneic colorectal cancer model, Compound A15 with anti-PD-1; assay type: in vivo; conditions: preclinical data
[15] = system: all other BaF3 cell lines; assay: kinase transfected BaF3 proliferation assays, all other BaF3 cell lines; conditions: Mus musculus, BaF3, read-out: Cellular EC50 all other BaF3 cell lines
[16] = 0.5 mg daily dosing regimen, over the dosing interval

Q: Which results are given for `CC(=O)Nc1cccc(-n2c(=O)n(C3CC3)c(=O)c3c(Nc4ccc(I)cc4F)n(C)c(=O)c(C)c32)c1` [trametinib, N-(3-{3-cyclopropyl-5-[(2-fluoro-4-iodophenyl)amino]-6,8-dimethyl-2,4,7-trioxo-3,4,6,7-tetrahydropyrido[4,3-d]pyrimidin-1(2H)-yl}phenyl)acetamide]?
A: CD4+ tumor infiltrating lymphocytes (TILs) [1]: increased; prevalence of CD8+ TILs [1]: did not negatively affect; CD4+ T cells in tumor tissue (CT26; CT26, treatment for seven days): significant increases of CD4+ T cells; tumor infiltrating lymphocytes (TILs) (CT26; CT26): increases the numbers of tumor infiltrating lymphocytes (TILs)

Q: With `CC(=O)O[C@H]1C(=O)[C@@]2(C)[C@H]([C@H](OC(=O)c3ccccc3)[C@]3(O)C[C@H](OC(=O)[C@H](O)[C@@H](NC(=O)c4ccccc4)c4ccccc4)C(C)=C1C3(C)C)[C@]1(OC(C)=O)CO[C@@H]1C[C@@H]2O` [traditional paclitaxel, (2α,4α,5β,7β,10β,13α)-4,10-Bis(acetyloxy)-13-{[(2R,3S)-3-(benzoylamino)-2-hydroxy-3-phenylpropanoyl]oxy}-1,7-dihydroxy-9-oxo-5,20-epoxytax-11-en-2-yl benzoate] as the compound, how does the ORR (metastatic breast cancer; first and second line or beyond) read?
A: 19%

Q: What about the TTP (metastatic breast cancer) of the same compound?
A: 16.9 weeks

Q: With `Nc1ncn([C@H]2C[C@H](O)[C@@H](CO)O2)c(=O)n1` [decitabine, 5-aza-2′-deoxycytidine] as the compound, how does the “complete remission rate (CR+CRp)” value (AML; in vivo) read?
A: 17.8%

Q: What about the “median Overall Survival (OS)” value (AML; intent-to-treat population) of the same compound?
A: 7.7 months

Q: With `CO[C@H]1C[C@@H]2CC[C@@H](C)[C@@](O)(O2)C(=O)C(=O)N2CCCC[C@H]2C(=O)O[C@H]([C@H](C)C[C@@H]2CC[C@@H](OCCO)[C@H](OC)C2)CC(=O)[C@H](C)/C=C(\C)[C@@H](O)[C@@H](OC)C(=O)[C@H](C)C[C@H](C)/C=C/C=C/C=C/1C` [everolimus] as the compound, how does the immune effect [2] read?
A: immunostimulatory

Q: What about the “inhibition of S6K phosphorylation” value [3, 16] of the same compound?
A: about 38%

Q: And the “inhibition of S6K phosphorylation” value ([3]; 5 mg weekly dosing regimen)?
A: more than 50%

Q: And the “inhibition of mTOR-mediated S6K phosphorylation” value ([3]; 20 mg weekly dosing regimen)?
A: almost completely

Q: What does the source list for `CN[C@@H](C)C(=O)N[C@H](C(=O)N1CCC[C@H]1c1nc(C(=O)c2ccc(F)cc2)cs1)C1CCCCC1` [Compound A21]?
A: complete responses (CRs) (MC38 [4]): neither single agent treatment yielded any CRs; IFNgamma (T lymphocytes [5]): induced; production of IL-10 (T lymphocytes [5]): suppressed; proliferation of T lymphocytes (T lymphocytes [5]): stimulated; IFNgamma (T lymphocytes [6]): induced IFNgamma; production of IL-10 (T lymphocytes [6]): suppressed production of IL-10; proliferation of T lymphocytes (T lymphocytes [6]): stimulated proliferation of T lymphocytes; tolerability (1800 mg in combination with paclitaxel): poorly tolerated; rate of pathological complete response of TNBC (with paclitaxel, clinical data): increased the rate of pathological complete response

Q: Which results are given for `O=C(/C=C/c1ccc2ccc(C(F)(F)F)cc2n1)c1ccncc1` [PFK-158, (E)-1-(pyridin-4-yl)-3-(7-(trifluoromethyl)quinolin-2-yl)-prop-2-en-1-one]?
A: antitumor activity (xenografted tumors): exhibit antitumor activity; 18FDG uptake (xenografted tumors; xenografted tumors): reduce

Q: For `Cc1cc(C(=O)Nc2nc3cccc(Cl)c3n2[C@@H]2CCCCN(C(=O)/C=C/CN(C)C)C2)ccn1` [Compound A40], which efficacy (EGFR mutant NSCLC) is on record?
A: has shown efficacy

Q: For `Cc1[nH]c2ccccc2c1CCNCc1ccc(/C=C/C(=O)NO)cc1` [Compound A19, Panobinostat], which “inhibition of HDAC activity” value [7] is on record?
A: highly effective at inhibiting the HDAC activity of the majority of class I, IIa, IIIb, and IV isoforms at low nanomolar concentrations

Q: What about the “animals achieving CRs” value (MC38 [8]; panobinostat 12 mg/kg every other day, anti-PD1 10 mg/kg IV once weekly) of the same compound?
A: two of ten

Q: And the body weight (MC38 [8]; recovery after dosing of panobinostat was completed)?
A: Some reduction in body weight

Q: And the “expression of the PD-L1 gene” value (PD-L1 gene; melanoma cell lines, cultured melanoma biopsy material, tumor-bearing mice)?
A: enhanced expression of the PD-L1 gene

Q: And the “responses to treatment with a PD-1 inhibitor” value (PD-L1 gene; mice)?
A: modestly improved responses

Q: With `COC1CC2CCC(C)C(O)(O2)C(=O)C(=O)N2CCCCC2C(=O)OC(C(C)CC2CCC(OCCO)C(OC)C2)CC(=O)C(C)/C=C(/C)C(O)C(OC)C(=O)C(C)CC(C)/C=C/C=C/C=C\1C` (centres unmarked) [Compound A36, Everolimus] as the compound, how does the “percentage of PD-1-positive CD4+ and CD8+ lymphocytes” value ([9]; compared to placebo) read?
A: reducing the percentage of PD-1-positive CD4+ and CD8+ lymphocytes

Q: What about the “response to an influenza vaccine” value ([9]; elderly subjects) of the same compound?
A: enhancing the response to an influenza vaccine

Q: What about the “inhibition of S6K phosphorylation” value [10, 16] of the same compound?
A: about 38%

Q: And the “inhibition of S6K phosphorylation” value ([10]; 5 mg weekly dosing regimen)?
A: more than 50%

Q: What about the “inhibition of mTOR-mediated S6K phosphorylation” value ([10]; 20 mg weekly dosing regimen) of the same compound?
A: almost completely

Q: For pembrolizumab, which “responses, patients” value (metastatic TNBC) is on record?
A: five of 27

Q: With `CNC(=O)c1cc(Oc2ccc3nc(N[C@@H]4CCCC[C@H]4O)sc3c2)ccn1` [Compound A15] as the compound, how does the EC50 (MNFS-60; read-out: EC50 anti-proliferative effect, MNFS-60, M-CSF dependent proliferation) read?
A: < 71 nM

Q: What about the EC50 (MNFS-60; read-out: EC50 anti-proliferative effect, MNFS-60; M-CSF dependent proliferation) of the same compound?
A: 71 nM

Q: And the EC50 (BAF3-PDGFRβ)?
A: ≥ 2000 nM

Q: And the transaminases [11]?
A: transaminases elevation

Q: What about the “established tumors and survival” value (glioblastoma; 200 mg/kg daily, genetic mouse model of glioblastoma) of the same compound?
A: induce regression of established tumors and increase survival

Q: What about the xenograft growth (glioblastoma; 200 mg/kg daily, proneural glioblastoma-derived xenografts) of the same compound?
A: slow the growth

Q: And the M2-type macrophages (glioblastoma; animal models of glioma)?
A: reduction and re-programming of M2-type macrophages

Q: What about the “suppressive function of tumor-educated monocytes on CD8+ and CD4+ T cells” value ([12]; monocytes co-cultured with neuroblastoma cell lines) of the same compound?
A: inhibit the suppressive function

Q: And the “potential of myeloid cells to stimulate human T cell proliferation” value ([12]; neuroblastoma (Mao et al. 2016))?
A: recovered the potential of myeloid cells to stimulate human T cell proliferation

Q: And the transaminases [13]?
A: transaminases elevation

Q: And the “once-a-week (Q1W) versus daily dose, TAMs depletion and anti-tumor activity” value (MC38 [14])?
A: performs at least as well as the daily dose

Q: What about the EC50 [15] of the same compound?
A: > 10000 nM
